Active and inactive are the calls of the source. The rule behind the calls is not given here.
How the values were obtained:
[1] = biological target: Mitogen-activated protein kinase 3 (Homo sapiens) (UniProt P27361); test: Inhibition of MAPK3 (unknown origin) at 1 uM measured after 1 hr relative to control
[2] = biological target: Protein kinase C alpha type (Homo sapiens) (UniProt P17252); test: Inhibition of PRKCA (unknown origin) at 1 uM measured after 1 hr relative to control
[3] = biological target: Casein kinase I isoform gamma-2 (Homo sapiens) (UniProt P78368); test: Inhibition of CSNK1G2 (unknown origin) at 1 uM measured after 1 hr relative to control
[4] = biological target: Mitogen-activated protein kinase kinase kinase kinase 4 (Homo sapiens) (UniProt O95819); test: Inhibition of MAP4K4 (unknown origin) at 1 uM measured after 1 hr relative to control
Chain of Mitogen-activated protein kinase kinase kinase kinase 4 (Homo sapiens) (O95819 2-1239 limits assumed): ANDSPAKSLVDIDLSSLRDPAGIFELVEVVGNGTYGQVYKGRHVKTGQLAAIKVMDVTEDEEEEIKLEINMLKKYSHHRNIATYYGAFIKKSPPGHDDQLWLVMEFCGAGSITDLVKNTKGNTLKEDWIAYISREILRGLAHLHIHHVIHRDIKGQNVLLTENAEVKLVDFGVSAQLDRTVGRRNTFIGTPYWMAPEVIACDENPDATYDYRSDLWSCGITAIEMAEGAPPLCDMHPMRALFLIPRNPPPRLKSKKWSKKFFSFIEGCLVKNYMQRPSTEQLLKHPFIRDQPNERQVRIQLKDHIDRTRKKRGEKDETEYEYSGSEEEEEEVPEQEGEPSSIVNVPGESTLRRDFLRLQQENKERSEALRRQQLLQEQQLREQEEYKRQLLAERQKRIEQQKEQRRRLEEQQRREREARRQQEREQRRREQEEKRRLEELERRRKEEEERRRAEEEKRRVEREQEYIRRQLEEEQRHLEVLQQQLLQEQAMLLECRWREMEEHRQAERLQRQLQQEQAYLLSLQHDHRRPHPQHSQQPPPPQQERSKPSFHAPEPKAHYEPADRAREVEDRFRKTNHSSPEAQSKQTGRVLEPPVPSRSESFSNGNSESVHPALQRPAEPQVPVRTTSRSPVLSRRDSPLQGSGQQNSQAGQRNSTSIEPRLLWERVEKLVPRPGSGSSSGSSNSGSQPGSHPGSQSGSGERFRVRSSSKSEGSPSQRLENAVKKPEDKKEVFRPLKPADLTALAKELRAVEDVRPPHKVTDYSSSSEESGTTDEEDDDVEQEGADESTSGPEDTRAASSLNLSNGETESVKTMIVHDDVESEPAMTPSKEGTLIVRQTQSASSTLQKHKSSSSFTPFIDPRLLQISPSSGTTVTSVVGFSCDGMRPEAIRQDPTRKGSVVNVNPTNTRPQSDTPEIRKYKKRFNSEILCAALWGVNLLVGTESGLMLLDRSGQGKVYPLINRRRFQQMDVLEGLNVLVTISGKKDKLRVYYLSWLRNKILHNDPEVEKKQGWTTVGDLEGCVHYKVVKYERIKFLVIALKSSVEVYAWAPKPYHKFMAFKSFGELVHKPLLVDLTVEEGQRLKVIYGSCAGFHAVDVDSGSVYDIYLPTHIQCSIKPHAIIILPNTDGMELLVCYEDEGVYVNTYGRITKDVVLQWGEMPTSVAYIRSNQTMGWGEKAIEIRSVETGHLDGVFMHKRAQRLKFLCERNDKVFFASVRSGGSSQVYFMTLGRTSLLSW

[5] = biological target: Receptor-type tyrosine-protein kinase FLT3 (Homo sapiens) (UniProt P36888); test: Inhibition of FLT3 (unknown origin) at 1 uM measured after 1 hr relative to control
[6] = Inhibition of EGF-induced phosphorylation of EGFR T790M/L858R double mutant in human NCI-H1975 cells preincubated for 2 hrs followed by EGF stimulation and measured after 10 mins by ELISA; assay type: cell-based
[7] = biological target: Serine/threonine-protein kinase Chk2 (Homo sapiens) (UniProt O96017); test: Inhibition of CHEK2 (unknown origin) at 1 uM measured after 1 hr relative to control
Chain of Serine/threonine-protein kinase Chk2 (Homo sapiens) (O96017 whole entry): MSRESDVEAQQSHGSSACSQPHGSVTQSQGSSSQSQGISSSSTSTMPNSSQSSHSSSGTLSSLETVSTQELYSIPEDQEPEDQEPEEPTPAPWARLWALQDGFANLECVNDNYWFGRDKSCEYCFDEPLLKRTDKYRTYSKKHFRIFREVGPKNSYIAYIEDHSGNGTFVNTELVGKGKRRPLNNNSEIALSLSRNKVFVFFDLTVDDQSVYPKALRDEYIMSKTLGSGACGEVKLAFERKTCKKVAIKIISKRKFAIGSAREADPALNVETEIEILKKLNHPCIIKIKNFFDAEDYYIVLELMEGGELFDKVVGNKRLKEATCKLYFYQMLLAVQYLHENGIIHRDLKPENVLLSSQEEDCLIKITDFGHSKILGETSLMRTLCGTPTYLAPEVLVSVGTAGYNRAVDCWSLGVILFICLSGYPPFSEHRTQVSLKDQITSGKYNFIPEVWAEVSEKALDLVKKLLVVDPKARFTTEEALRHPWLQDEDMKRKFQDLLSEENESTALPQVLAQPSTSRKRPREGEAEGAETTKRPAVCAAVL

[8] = biological target: Dual specificity mitogen-activated protein kinase kinase 1 (Homo sapiens) (UniProt Q02750); test: Inhibition of MAP2K1 (unknown origin) at 1 uM measured after 1 hr relative to control
[9] = biological target: Glycogen synthase kinase-3 beta (Homo sapiens) (UniProt P49841); test: Inhibition of GSK3B (unknown origin) at 1 uM measured after 1 hr relative to control
[10] = biological target: Serine/threonine-protein kinase B-raf (Homo sapiens) (UniProt P15056); test: Inhibition of BRAF (unknown origin) at 1 uM measured after 1 hr relative to control
[11] = biological target: Mitogen-activated protein kinase kinase kinase 9 (Homo sapiens) (UniProt P80192); test: Inhibition of MAP3K9 (unknown origin) at 1 uM measured after 1 hr relative to control
[12] = biological target: Mitogen-activated protein kinase 8 (Homo sapiens) (UniProt P45983); test: Inhibition of MAPK8 (unknown origin) at 1 uM measured after 1 hr relative to control
Chain of Mitogen-activated protein kinase 8 (Homo sapiens) (P45983 whole entry): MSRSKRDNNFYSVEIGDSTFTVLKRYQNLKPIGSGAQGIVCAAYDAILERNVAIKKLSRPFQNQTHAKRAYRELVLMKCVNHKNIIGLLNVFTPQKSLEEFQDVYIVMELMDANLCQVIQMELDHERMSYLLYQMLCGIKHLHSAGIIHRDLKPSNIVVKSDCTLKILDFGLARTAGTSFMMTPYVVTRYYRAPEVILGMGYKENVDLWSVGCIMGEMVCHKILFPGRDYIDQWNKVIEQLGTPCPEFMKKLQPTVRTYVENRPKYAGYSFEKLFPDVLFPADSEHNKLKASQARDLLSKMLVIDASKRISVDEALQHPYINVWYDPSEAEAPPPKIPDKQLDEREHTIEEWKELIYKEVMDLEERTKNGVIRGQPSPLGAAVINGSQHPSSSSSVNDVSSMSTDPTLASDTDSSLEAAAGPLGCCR

[13] = biological target: Serine/threonine-protein kinase PLK2 (Homo sapiens) (UniProt Q9NYY3); test: Inhibition of PLK2 (unknown origin) at 1 uM measured after 1 hr relative to control
[14] = Oral bioavailability in mouse; assay type: ADME, organism-based; settings: in vivo
[15] = biological target: T1, Serine/threonine-protein kinase BRSK1 (Homo sapiens) (UniProt Q8TDC3); test: Inhibition of BRSK1 (unknown origin) at 1 uM measured after 1 hr relative to control
T1 sequence (whole entry): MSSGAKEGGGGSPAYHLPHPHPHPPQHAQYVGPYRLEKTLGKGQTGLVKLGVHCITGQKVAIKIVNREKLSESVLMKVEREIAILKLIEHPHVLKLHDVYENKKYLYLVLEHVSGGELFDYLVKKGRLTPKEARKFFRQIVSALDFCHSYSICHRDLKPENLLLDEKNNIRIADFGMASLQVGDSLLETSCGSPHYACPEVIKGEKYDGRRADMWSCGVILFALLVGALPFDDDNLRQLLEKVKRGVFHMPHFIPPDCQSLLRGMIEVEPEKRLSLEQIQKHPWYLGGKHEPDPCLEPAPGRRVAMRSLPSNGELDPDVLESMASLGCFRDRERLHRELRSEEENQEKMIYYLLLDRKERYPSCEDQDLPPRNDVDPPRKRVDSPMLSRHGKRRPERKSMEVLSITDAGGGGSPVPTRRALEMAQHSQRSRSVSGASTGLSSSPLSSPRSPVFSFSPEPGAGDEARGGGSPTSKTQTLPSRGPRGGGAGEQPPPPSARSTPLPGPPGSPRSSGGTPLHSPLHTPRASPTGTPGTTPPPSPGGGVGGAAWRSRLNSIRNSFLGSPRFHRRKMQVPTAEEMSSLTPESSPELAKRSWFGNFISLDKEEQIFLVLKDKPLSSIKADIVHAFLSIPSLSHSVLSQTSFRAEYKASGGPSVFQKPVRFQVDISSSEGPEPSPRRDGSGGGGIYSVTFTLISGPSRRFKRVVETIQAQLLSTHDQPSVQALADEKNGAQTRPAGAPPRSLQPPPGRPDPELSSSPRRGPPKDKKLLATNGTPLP

[16] = biological target: Cyclin-dependent kinase 1/cyclin B1 (Homo sapiens) (UniProt P06493+P14635); test: Inhibition of cdk1/Cyclin B (unknown origin) at 1 uM measured after 1 hr relative to control; assay type: protein-complex assay
Chain of Cyclin-dependent kinase 1/cyclin B1 (Homo sapiens) (P06493 whole entry, looked up): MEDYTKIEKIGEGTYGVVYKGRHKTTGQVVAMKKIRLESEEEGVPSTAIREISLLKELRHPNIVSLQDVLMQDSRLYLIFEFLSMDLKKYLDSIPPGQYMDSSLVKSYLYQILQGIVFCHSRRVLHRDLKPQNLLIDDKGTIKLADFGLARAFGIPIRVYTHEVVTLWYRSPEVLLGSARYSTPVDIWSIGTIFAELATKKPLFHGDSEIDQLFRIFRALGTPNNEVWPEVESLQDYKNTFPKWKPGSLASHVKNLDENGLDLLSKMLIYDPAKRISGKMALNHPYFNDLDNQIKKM
Chain of Cyclin-dependent kinase 1/cyclin B1 (Homo sapiens) (P14635 whole entry, looked up): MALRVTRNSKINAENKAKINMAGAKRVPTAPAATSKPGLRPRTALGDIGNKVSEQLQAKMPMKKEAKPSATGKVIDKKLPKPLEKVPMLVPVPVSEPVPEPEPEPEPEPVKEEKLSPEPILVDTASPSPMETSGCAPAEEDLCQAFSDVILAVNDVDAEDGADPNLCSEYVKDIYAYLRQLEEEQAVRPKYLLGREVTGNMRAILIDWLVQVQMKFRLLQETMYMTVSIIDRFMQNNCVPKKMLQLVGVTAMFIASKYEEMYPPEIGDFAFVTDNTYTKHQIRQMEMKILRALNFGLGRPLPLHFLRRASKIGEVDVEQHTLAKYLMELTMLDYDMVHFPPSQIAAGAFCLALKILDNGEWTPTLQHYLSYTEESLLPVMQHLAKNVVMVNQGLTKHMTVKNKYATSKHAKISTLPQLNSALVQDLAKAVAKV

[17] = biological target: Dual specificity tyrosine-phosphorylation-regulated kinase 1A (Homo sapiens) (UniProt Q13627); test: Inhibition of DYRK1A (unknown origin) at 1 uM measured after 1 hr relative to control
[18] = biological target: Insulin-like growth factor 1 receptor (Homo sapiens) (UniProt P08069); test: Inhibition of IGF1R (unknown origin) at 1 uM measured after 1 hr relative to control
Chain of Insulin-like growth factor 1 receptor (Homo sapiens) (P08069 31-736 limits assumed): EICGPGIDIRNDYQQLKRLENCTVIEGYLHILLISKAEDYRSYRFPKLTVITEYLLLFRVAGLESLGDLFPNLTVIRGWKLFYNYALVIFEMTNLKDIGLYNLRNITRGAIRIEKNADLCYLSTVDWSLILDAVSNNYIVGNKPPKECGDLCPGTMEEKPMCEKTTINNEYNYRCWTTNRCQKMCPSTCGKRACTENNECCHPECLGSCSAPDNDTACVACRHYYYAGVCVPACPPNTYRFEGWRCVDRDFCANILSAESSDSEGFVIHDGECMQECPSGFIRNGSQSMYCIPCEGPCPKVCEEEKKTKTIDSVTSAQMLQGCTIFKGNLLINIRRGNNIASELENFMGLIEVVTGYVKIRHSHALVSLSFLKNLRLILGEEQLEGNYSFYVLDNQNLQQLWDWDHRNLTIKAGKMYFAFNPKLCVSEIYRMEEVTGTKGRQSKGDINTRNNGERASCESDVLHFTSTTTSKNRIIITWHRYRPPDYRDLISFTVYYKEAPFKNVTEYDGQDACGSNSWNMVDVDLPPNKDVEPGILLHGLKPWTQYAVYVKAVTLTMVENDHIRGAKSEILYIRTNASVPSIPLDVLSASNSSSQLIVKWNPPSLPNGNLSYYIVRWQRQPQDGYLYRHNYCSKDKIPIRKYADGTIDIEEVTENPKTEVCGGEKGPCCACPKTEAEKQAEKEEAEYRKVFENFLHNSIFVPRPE
Chain of Insulin-like growth factor 1 receptor (Homo sapiens) (P08069 741-1367 limits assumed): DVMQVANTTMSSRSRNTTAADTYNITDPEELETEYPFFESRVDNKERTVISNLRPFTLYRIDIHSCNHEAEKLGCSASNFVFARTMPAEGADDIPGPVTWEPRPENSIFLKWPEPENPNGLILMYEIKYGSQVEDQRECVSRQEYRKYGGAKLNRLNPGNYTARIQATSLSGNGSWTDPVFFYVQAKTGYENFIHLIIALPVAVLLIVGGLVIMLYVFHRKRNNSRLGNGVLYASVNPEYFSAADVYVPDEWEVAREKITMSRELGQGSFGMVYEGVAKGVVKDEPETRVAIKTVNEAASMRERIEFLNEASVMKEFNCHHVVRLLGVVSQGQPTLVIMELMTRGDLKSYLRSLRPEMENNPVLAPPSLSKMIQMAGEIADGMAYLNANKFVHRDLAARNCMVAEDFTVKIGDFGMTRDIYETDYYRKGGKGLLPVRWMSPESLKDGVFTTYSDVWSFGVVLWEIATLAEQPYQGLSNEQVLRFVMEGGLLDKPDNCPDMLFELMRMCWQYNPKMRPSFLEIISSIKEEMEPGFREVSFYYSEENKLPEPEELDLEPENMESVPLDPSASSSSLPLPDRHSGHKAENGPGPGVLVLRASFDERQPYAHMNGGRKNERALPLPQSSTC

[19] = biological target: T2, Epidermal growth factor receptor (Homo sapiens, UniProt P00533, L858R/T790M); test: (§1) Inhibition of EGF-induced phosphorylation of EGFR T790M/L858R double mutant in human NCI-H1975 cells preincubated for 120 mins followed by EGF stimulation and measured after 10 mins by ELISA; assay type: cell-based
[20] = biological target: T3, Epidermal growth factor receptor (Homo sapiens, UniProt P00533); test: Inhibition of wild type EGFR (unknown origin) preincubated for 60 mins followed by substrate addition and further incubated for 60 mins in presence of ATP by IMAP-FP assay
[21] = biological target: T3, Epidermal growth factor receptor; test: Inhibition of EGF-induced phosphorylation of wild type EGFR in human NCI-H1975 cells preincubated for 120 mins followed by EGF stimulation and measured after 10 mins by ELISA; assay type: cell-based
Homo sapiens = species: Homo sapiens; test: as §1, with “Selectivity ratio of EC50 for inhibition of EGF-induced phosphorylation of wild type EGFR in human NCI-H1975 cells to EC50 for inhibition” for “Inhibition”; assay type: cell-based; settings: time 130.0 min
[22] = biological target: T2, Epidermal growth factor receptor; test: Inhibition of EGFR T790M/L858R double mutant (unknown origin) preincubated for 60 mins followed by substrate addition and further incubated for 60 mins in presence of ATP by IMAP-FP assay
[23] = Toxicity in mouse xenografted with human NCI-H1975 cells assessed as change in body weight at 30 mg/kg, po administered bid measured after 11 days; assay type: organism-based; settings: in vivo, 264 h, time 11 day
NCI-H1975 [24] = test: Antitumor activity against human NCI-H1975 cells xenografted in mouse model assessed as tumor growth inhibition at 30 mg/kg, po administered bid measured after 11 days relative to control; assay type: functional; settings: 264 h, time 11 day, read-out: TGI
NCI-H1975 [25] = test: Antitumor activity against human NCI-H1975 cells xenografted in mouse model assessed as tumor growth inhibition at 30 mg/kg, po administered qd measured after 11 days; assay type: functional, organism-based; settings: time 11.0 day

SMILES	inhibition [1]	inhibition [2]	inhibition [3]	inhibition [4]	inhibition [5]	inhibition [7]	inhibition [8]	inhibition [9]	inhibition [10]	inhibition [11]	inhibition [12]	inhibition [13]	bioavailability [14]	inhibition [15]	inhibition [16]	inhibition [17]	inhibition [18]	EC50 [19]	IC50 [20]	IC50 [22]	further results
C=CC(=O)Nc1cc(Nc2nccc(-c3cn(C)c4ccccc34)n2)c(OC)cc1N(C)CCN(C)C [OSIMERTINIB]	0%	4%	5%	78%	57%	0%	0%	12%	6%	71%	0%	0%	45%	7%	5%	0%	31%				EC50 [6]: 15 nM
C=CC(=O)N1CCC2(CC1)CNC(=O)c1cc(-c3ccnc(Nc4ccccc4OC)n3)[nH]c12	69%	30%	81%	91%	85%	99%	72%	85%	83%	75%	80%	79%	3.2%	18%	71%	73%	3%	40 nM	0.4 nM	0.9 nM	EC50 [21]: 308 nM; Ratio EC50 (Homo sapiens): 7.7
COc1ccccc1Nc1nccc(-c2cc3c([nH]2)C2(CCN(C(=O)C#CN(C)C)CC2)CNC3=O)n1																		2180 nM	5.3 nM	2.8 nM	
C=CC(=O)N1CCC2(CC1)CNC(=O)c1cc(-c3ccnc(-c4cccc(OC)c4)n3)[nH]c12																		2550 nM	32 nM	9.6 nM	
C=CC(=O)N1CCC2(CC1)CNC(=O)c1cc(-c3ccnc(Nc4ccccc4OC)c3)[nH]c12	81%	14%	79%	80%	16%	100%	80%	34%	75%	1%	87%	7%		18%	12%	46%	0%	> 10000 nM	192 nM	37 nM	
CC#CC(=O)Nc1cccc(-c2nccc(-c3cc4c([nH]3)C3(CCNCC3)CNC4=O)n2)c1																				499 nM	
C=CC(=O)N1CCC2(CC1)CNC(=O)c1cc(-c3ccnc(-c4ccc5c(c4)OCO5)n3)[nH]c12																			43 nM	6.5 nM	
C=CC(=O)N1CCC2(CC1)CNC(=O)c1cc(-c3ccnc(Nc4ccccc4OC(C)C)n3)[nH]c12	40%	5%	88%	32%	22%	100%	48%	88%	34%	38%	50%	12%	11%	4%	8%	70%	14%	8.8 nM	1.2 nM	1.3 nM	Activity [23]: Non-Toxic; inhibition in vivo at 30 mg/kg (NCI-H1975 [24]): 60%; Activity (NCI-H1975 [25]): Active; EC50 [21]: 562 nM; Ratio EC50 (Homo sapiens): 64
C=CC(=O)N1CCC2(CC1)CNC(=O)c1cc(-c3nc(Nc4ccccc4OC)ncc3C)[nH]c12	90%	61%	92%	89%	100%	96%	98%	99%	98%	98%	85%	86%	87%	0%	89%	98%	69%	12 nM	1.4 nM	1.2 nM	EC50 [21]: 165 nM; Ratio EC50 (Homo sapiens): 14
C=CC(=O)N1CCC2(CC1)CNC(=O)c1cc(-c3nc(Nc4ccccc4OC)ncc3Cl)[nH]c12																		3.1 nM	0.9 nM	0.8 nM	EC50 [21]: 277 nM; Ratio EC50 (Homo sapiens): 89
